Assay results taken from ChEMBL document CHEMBL5042508, “Structures and Biological Activities of Polyacylated ent-Kaurane Diterpenoid Glycosides from the Aerial Parts of Inula hupehensis” (J Nat Prod, 2022).

Experiments:
[1] = Inhibition of Saccharomyces cerevisiae alpha-glucosidase using pNPG as substrate assessed as release of p-nitrophenol preincubated for 18 mins followed by substrate addition and measured after 30 mins by colorimetric method
BV-2 [2] = experiment: Antineuroinflammatory activity against mouse BV-2 cells assessed as inhibition of LPS-induced NO production by Griess assay; type: functional, cell-based
BV-2 [3] = experiment: Cytotoxicity against mouse BV2 cells assessed as reduction in cell viability by MTT assay; type: toxicity, cell-based

IC50 [1] [µM]	IC50 (BV-2 [2]) [µM]	Structure (SMILES)	Activity (BV-2 [3])
537		C=C1[C@@H]2CC[C@H]3[C@]4(C)C[C@H](O[C@@H]5O[C@H](CO)[C@@H](OC(C)=O)[C@H](O[C@@H]6OC[C@H](OC(C)=O)[C@H](O)[C@H]6O)[C@H]5OC(=O)CC(C)C)C[C@@H](C(=O)O)[C@H]4CC[C@]3(C2)[C@H]1O	
373		C=C1[C@@H]2CC[C@H]3[C@]4(C)C[C@H](O[C@@H]5O[C@H](CO)[C@@H](O)[C@H](O[C@@H]6OC[C@H](OC(C)=O)[C@H](O)[C@H]6OC(C)=O)[C@H]5OC(=O)CC(C)C)C[C@@H](C(=O)O)[C@H]4CC[C@]3(C2)[C@H]1O	
388		C[C@H]1O[C@H](O[C@H]2[C@H](O)[C@@H](O)[C@@H](O[C@H]3[C@H](O)[C@@H](O)C(O)O[C@@H]3CO)O[C@@H]2CO)[C@H](O)[C@@H](O)[C@@H]1N[C@H]1C=C(CO)[C@@H](O)[C@H](O)[C@H]1O (some centres not stated) [ACARBOSE]	
	31.8	CNC(=N)NCCC[C@H](N)C(=O)O [TILARGININE]	
	15.6	C=C1[C@@H]2CC[C@H]3[C@]4(C)C[C@H](O[C@@H]5O[C@H](COC(C)=O)[C@@H](OC(C)=O)[C@H](O[C@@H]6OC[C@H](O)[C@H](O)[C@H]6O)[C@H]5OC(=O)CC(C)C)C[C@@H](C(=O)O)[C@H]4CC[C@]3(C2)[C@H]1O	Non-Toxic
32.8		C=C1[C@@H]2CC[C@H]3[C@]4(C)C[C@H](O[C@@H]5O[C@H](CO)[C@@H](O)[C@H](OC(C)=O)[C@H]5OC(=O)CC(C)C)CC(C(=O)O)(C(=O)O)[C@H]4CC[C@]3(C2)[C@H]1O	
